± gives the expanded uncertainty stated by the source.

The nature of one data set: xn = mol fraction of the nth substance listed. Conditions: 318.15 K; 100 kPa; Liquid; Falling or rolling sphere viscometry; x2 = 0.
As for `CCCO` [propan-1-ol] + CCCCCCCCCCC, the viscosity worked out at 1.229 ± 0.015 mPa·s.

Still in this data set, the particulars now being: 318.15 K; 100 kPa; Liquid; Vibrating tube method; x2 = 0.
Take `CCCCO` [butan-1-ol] + CCCCCCCCCCC: the mass density worked out at 790.27 ± 1.6 kg/m3.
On the same count and under the same terms, the figure for `CCCCCCO` [hexan-1-ol] + CCCCCCCCCCC is 800.83 ± 1.6 kg/m3; for `CCCCCO` [pentan-1-ol] + CCCCCCCCCCC it is 796.17 ± 1.6 kg/m3.
Same read-out and setting: in the case of `CCCO` [propan-1-ol] + CCCCCCCCCCC it was 783.304 ± 1.6 kg/m3.

The data set is the same for the next values; noted with them: 323.15 K; 100 kPa; Liquid; Falling or rolling sphere viscometry; x2 = 0.
Turning to `CCCCO` [butan-1-ol] + CCCCCCCCCCC, the viscosity was found to be 1.427 ± 0.018 mPa·s.
Same read-out and setting: the figure for `CCCCCCO` [hexan-1-ol] + CCCCCCCCCCC is 2.228 ± 0.03 mPa·s.
On the same count and under the same terms, the figure for `CCCCCO` [pentan-1-ol] + CCCCCCCCCCC is 1.81 ± 0.024 mPa·s.
Still for that read-out and setting: in the case of `CCCO` [propan-1-ol] + CCCCCCCCCCC it was 1.113 ± 0.014 mPa·s.

The same data set, now with this note: 323.15 K; 100 kPa; Liquid; Vibrating tube method; x2 = 0.
In the case of `CCCCO` [butan-1-ol] + CCCCCCCCCCC, the mass density is 786.3 ± 1.6 kg/m3.
Same read-out and setting: the figure for `CCCCCCO` [hexan-1-ol] + CCCCCCCCCCC is 797.12 ± 1.6 kg/m3.
On the same count and under the same terms, the figure for `CCCCCO` [pentan-1-ol] + CCCCCCCCCCC is 792.36 ± 1.6 kg/m3; for `CCCO` [propan-1-ol] + CCCCCCCCCCC it is 779.11 ± 1.6 kg/m3.

Still in this data set, the particulars now being: 328.15 K; 100 kPa; Liquid; Falling or rolling sphere viscometry; x2 = 0.
For the compound `CCCCO` [butan-1-ol] + CCCCCCCCCCC, the viscosity was 1.278 ± 0.016 mPa·s.
On the same count and under the same terms, in the case of `CCCCCCO` [hexan-1-ol] + CCCCCCCCCCC it was 1.97 ± 0.027 mPa·s; in that of `CCCCCO` [pentan-1-ol] + CCCCCCCCCCC, 1.608 ± 0.022 mPa·s; in that of `CCCO` [propan-1-ol] + CCCCCCCCCCC, 1.002 ± 0.013 mPa·s.

Staying with this data set, now noted: 328.15 K; 100 kPa; Liquid; Vibrating tube method; x2 = 0.
Consider `CCCCO` [butan-1-ol] + CCCCCCCCCCC, for which the mass density is recorded as 782.27 ± 1.6 kg/m3.
The same measure, in the same setting: in the case of `CCCCCCO` [hexan-1-ol] + CCCCCCCCCCC it was 793.37 ± 1.6 kg/m3; in that of `CCCCCO` [pentan-1-ol] + CCCCCCCCCCC, 788.5 ± 1.6 kg/m3.
As to `CCCO` [propan-1-ol] + CCCCCCCCCCC, the mass density is 774.86 ± 1.6 kg/m3.

Staying with this data set, now noted: 333.15 K; 100 kPa; Liquid; Falling or rolling sphere viscometry; x2 = 0.
On to `CCCCO` [butan-1-ol] + CCCCCCCCCCC, for which the viscosity was 1.147 ± 0.014 mPa·s.
The same measure, in the same setting: the figure for `CCCCCCO` [hexan-1-ol] + CCCCCCCCCCC is 1.744 ± 0.023 mPa·s; for `CCCCCO` [pentan-1-ol] + CCCCCCCCCCC it is 1.434 ± 0.019 mPa·s; for `CCCO` [propan-1-ol] + CCCCCCCCCCC it is 0.905 ± 0.011 mPa·s.

Still in this data set, the particulars now being: 333.15 K; 100 kPa; Liquid; Vibrating tube method; x2 = 0.
As for `CCCCO` [butan-1-ol] + CCCCCCCCCCC, the mass density was 778.18 ± 1.6 kg/m3.
With `CCCCCCO` [hexan-1-ol] + CCCCCCCCCCC, the mass density stood at 789.57 ± 1.6 kg/m3.
On the same count and under the same terms, the figure for `CCCCCO` [pentan-1-ol] + CCCCCCCCCCC is 784.59 ± 1.6 kg/m3; for `CCCO` [propan-1-ol] + CCCCCCCCCCC it is 770.54 ± 1.5 kg/m3.

Staying with this data set, now noted: 338.15 K; 100 kPa; Liquid; Falling or rolling sphere viscometry; x2 = 0.
As for `CCCCO` [butan-1-ol] + CCCCCCCCCCC, the viscosity came to 1.032 ± 0.013 mPa·s.
Still for that read-out and setting: in the case of `CCCCCCO` [hexan-1-ol] + CCCCCCCCCCC it was 1.553 ± 0.021 mPa·s; in that of `CCCCCO` [pentan-1-ol] + CCCCCCCCCCC, 1.283 ± 0.017 mPa·s; in that of `CCCO` [propan-1-ol] + CCCCCCCCCCC, 0.819 ± 0.01 mPa·s.

Still in this data set, the particulars now being: 338.15 K; 100 kPa; Liquid; Vibrating tube method; x2 = 0.
On to `CCCCO` [butan-1-ol] + CCCCCCCCCCC, for which the mass density amounted to 774.03 ± 1.6 kg/m3.
Same read-out and setting: in the case of `CCCCCCO` [hexan-1-ol] + CCCCCCCCCCC it was 785.72 ± 1.6 kg/m3.
On the same count and under the same terms, in the case of `CCCCCO` [pentan-1-ol] + CCCCCCCCCCC it was 780.62 ± 1.6 kg/m3; in that of `CCCO` [propan-1-ol] + CCCCCCCCCCC, 766.15 ± 1.5 kg/m3.

The data set is the same for the next values; noted with them: 343.15 K; 100 kPa; Liquid; Falling or rolling sphere viscometry; x2 = 0.
In the case of `CCCCO` [butan-1-ol] + CCCCCCCCCCC, the viscosity was found to be 0.934 ± 0.012 mPa·s.
On to `CCCCCCO` [hexan-1-ol] + CCCCCCCCCCC, for which the viscosity was determined as 1.39 ± 0.019 mPa·s.
As to `CCCCCO` [pentan-1-ol] + CCCCCCCCCCC, the viscosity is reported as 1.152 ± 0.015 mPa·s.
The same measure, in the same setting: in the case of `CCCO` [propan-1-ol] + CCCCCCCCCCC it was 0.752 ± 0.0094 mPa·s.

The data set is the same for the next values; noted with them: 343.15 K; 100 kPa; Liquid; Vibrating tube method; x2 = 0.
As to `CCCCO` [butan-1-ol] + CCCCCCCCCCC, the mass density turned out to be 769.8 ± 1.5 kg/m3.
The same measure, in the same setting: the figure for `CCCCCCO` [hexan-1-ol] + CCCCCCCCCCC is 781.83 ± 1.6 kg/m3.
With `CCCCCO` [pentan-1-ol] + CCCCCCCCCCC, the mass density is listed as 776.58 ± 1.6 kg/m3.
The same measure, in the same setting: the figure for `CCCO` [propan-1-ol] + CCCCCCCCCCC is 761.67 ± 1.5 kg/m3.

The data set is the same for the next values; noted with them: 348.15 K; 100 kPa; Liquid; Falling or rolling sphere viscometry; x2 = 0.
Take `CCCCO` [butan-1-ol] + CCCCCCCCCCC: the viscosity came to 0.842 ± 0.011 mPa·s.
Consider `CCCCCCO` [hexan-1-ol] + CCCCCCCCCCC, for which the viscosity turned out to be 1.255 ± 0.017 mPa·s.
For `CCCCCO` [pentan-1-ol] + CCCCCCCCCCC, the viscosity worked out at 1.038 ± 0.014 mPa·s.
The same measure, in the same setting: in the case of `CCCO` [propan-1-ol] + CCCCCCCCCCC it was 0.685 ± 0.0086 mPa·s.

Staying with this data set, now noted: 348.15 K; 100 kPa; Liquid; Vibrating tube method; x2 = 0.
In the case of `CCCCO` [butan-1-ol] + CCCCCCCCCCC, the mass density was 765.49 ± 1.5 kg/m3.
Regarding `CCCCCCO` [hexan-1-ol] + CCCCCCCCCCC, the mass density stood at 777.86 ± 1.6 kg/m3.
On the same count and under the same terms, the figure for `CCCCCO` [pentan-1-ol] + CCCCCCCCCCC is 772.49 ± 1.6 kg/m3.
On the same count and under the same terms, the figure for `CCCO` [propan-1-ol] + CCCCCCCCCCC is 757.09 ± 1.5 kg/m3.

Still in this data set, the particulars now being: 353.15 K; 100 kPa; Liquid; Falling or rolling sphere viscometry; x2 = 0.
As for `CCCCO` [butan-1-ol] + CCCCCCCCCCC, the viscosity amounted to 0.762 ± 0.01 mPa·s.
In the case of `CCCCCCO` [hexan-1-ol] + CCCCCCCCCCC, the viscosity was 1.125 ± 0.015 mPa·s.
On the same count and under the same terms, the figure for `CCCCCO` [pentan-1-ol] + CCCCCCCCCCC is 0.939 ± 0.013 mPa·s; for `CCCO` [propan-1-ol] + CCCCCCCCCCC it is 0.625 ± 0.0078 mPa·s.

Still in this data set, the particulars now being: 353.15 K; 100 kPa; Liquid; Vibrating tube method; x2 = 0.
With `CCCCO` [butan-1-ol] + CCCCCCCCCCC, the mass density was 761.12 ± 1.5 kg/m3.
In the case of `CCCCCCO` [hexan-1-ol] + CCCCCCCCCCC, the mass density is listed as 773.86 ± 1.6 kg/m3.
On the same count and under the same terms, in the case of `CCCCCO` [pentan-1-ol] + CCCCCCCCCCC it was 768.33 ± 1.6 kg/m3; in that of `CCCO` [propan-1-ol] + CCCCCCCCCCC, 752.44 ± 1.5 kg/m3.

Staying with this data set, now noted: 358.15 K; 100 kPa; Liquid; Falling or rolling sphere viscometry; x2 = 0.
Consider `CCCCO` [butan-1-ol] + CCCCCCCCCCC, for which the viscosity was determined as 0.693 ± 0.009 mPa·s.
Same read-out and setting: the figure for `CCCCCCO` [hexan-1-ol] + CCCCCCCCCCC is 1.018 ± 0.014 mPa·s.
The same measure, in the same setting: in the case of `CCCCCO` [pentan-1-ol] + CCCCCCCCCCC it was 0.852 ± 0.011 mPa·s; in that of `CCCO` [propan-1-ol] + CCCCCCCCCCC, 0.574 ± 0.0072 mPa·s.

The same data set, now with this note: 358.15 K; 100 kPa; Liquid; Vibrating tube method; x2 = 0.
For the compound `CCCCO` [butan-1-ol] + CCCCCCCCCCC, the mass density is given as 756.64 ± 1.5 kg/m3.
For `CCCCCCO` [hexan-1-ol] + CCCCCCCCCCC, the mass density turned out to be 769.78 ± 1.6 kg/m3.
Still for that read-out and setting: the figure for `CCCCCO` [pentan-1-ol] + CCCCCCCCCCC is 764.08 ± 1.5 kg/m3; for `CCCO` [propan-1-ol] + CCCCCCCCCCC it is 747.65 ± 1.5 kg/m3.

Staying with this data set, now noted: 363.15 K; 100 kPa; Liquid; Falling or rolling sphere viscometry; x2 = 0.
As for `CCCCO` [butan-1-ol] + CCCCCCCCCCC, the viscosity is 0.633 ± 0.008 mPa·s.
Same read-out and setting: in the case of `CCCCCCO` [hexan-1-ol] + CCCCCCCCCCC it was 0.925 ± 0.012 mPa·s; in that of `CCCCCO` [pentan-1-ol] + CCCCCCCCCCC, 0.776 ± 0.01 mPa·s.
Still for that read-out and setting: in the case of `CCCO` [propan-1-ol] + CCCCCCCCCCC it was 0.528 ± 0.0066 mPa·s.

The data set is the same for the next values; noted with them: 363.15 K; 100 kPa; Liquid; Vibrating tube method; x2 = 0.
For `CCCCO` [butan-1-ol] + CCCCCCCCCCC, the mass density turned out to be 752.08 ± 1.5 kg/m3.
Consider `CCCCCCO` [hexan-1-ol] + CCCCCCCCCCC, for which the mass density is listed as 765.64 ± 1.6 kg/m3.
Regarding `CCCCCO` [pentan-1-ol] + CCCCCCCCCCC, the mass density is listed as 759.77 ± 1.5 kg/m3.
Take `CCCO` [propan-1-ol] + CCCCCCCCCCC: the mass density amounted to 742.77 ± 1.5 kg/m3.

The term viscosity denotes the internal friction of a fluid under shear. One may read the mass density as the mass of a sample divided by its volume.

Values taken from the NIST ThermoML archive (doi:10.1021/acs.jced.6b00121).
